Key:
[1] = biological target: T1, bradykinin 1 receptor (B1R) of the rat (Rattus norvegicus, UniProt P97583); test: Functional investigation on the rat bradykinin 1 receptor (B1R), Ca2+ FLIPR assay in CHO K1 rB1R cells; type: cell-based; conditions: B1R antagonism rat; test substance 10 μM; Ca2+ FLIPR, CHO K1 rB1R cells
T1 construct: expressed in transfected cells; host or cells: CHO K1 cells
T1 sequence (P97583 1-337): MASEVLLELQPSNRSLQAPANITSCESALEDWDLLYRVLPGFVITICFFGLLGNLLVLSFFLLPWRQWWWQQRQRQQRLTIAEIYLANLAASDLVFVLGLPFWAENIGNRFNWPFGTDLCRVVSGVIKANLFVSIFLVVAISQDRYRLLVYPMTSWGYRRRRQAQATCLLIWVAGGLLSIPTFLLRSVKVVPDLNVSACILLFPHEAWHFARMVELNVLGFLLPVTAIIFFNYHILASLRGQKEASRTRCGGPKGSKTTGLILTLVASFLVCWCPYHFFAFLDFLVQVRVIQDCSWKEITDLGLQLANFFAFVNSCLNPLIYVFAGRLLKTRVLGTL
In short: (§1)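 Fluo-4 Ca2+ readout, peak fluorescence. Stable CHO K1 transfectants; compound pre-incubated 10-20 min, then EC80 agonist—Lys-Des-Arg9-BK for hB1R, Des-Arg9-BK for rB1R. % inhibition vs maximal inhibition; IC50 from multiple concentrations, duplicate/triplicate, ≥2 independent runs.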

[2] = biological target: T2, human bradykinin 1 receptor (B1R) (Homo sapiens, UniProt P46663); test: Functional investigation on the human bradykinin 1 receptor (B1R), Ca2+ FLIPR assay in CHO K1 hB1R cells; type: cell-based; conditions: B1R antagonism human; test substance 10 μM; Ca2+ FLIPR, CHO K1 hB1R cells
T2 construct: expressed in transfected cells; host or cells: CHO K1 cells
T2 sequence (P46663 1-353): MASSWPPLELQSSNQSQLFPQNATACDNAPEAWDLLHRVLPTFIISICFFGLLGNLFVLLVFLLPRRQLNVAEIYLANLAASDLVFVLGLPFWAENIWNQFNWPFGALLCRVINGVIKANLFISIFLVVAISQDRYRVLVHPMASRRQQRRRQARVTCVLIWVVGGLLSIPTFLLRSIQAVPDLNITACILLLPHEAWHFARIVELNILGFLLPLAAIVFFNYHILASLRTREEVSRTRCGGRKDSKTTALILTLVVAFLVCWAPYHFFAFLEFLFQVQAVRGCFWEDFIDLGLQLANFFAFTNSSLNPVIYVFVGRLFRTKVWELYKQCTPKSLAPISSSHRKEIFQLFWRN
In short: as §1

## CN(C)C(c1ccc(F)cc1)C1CCC(CCNC(=O)COCCN(Cc2ccccc2)S(=O)(=O)c2ccccc2)CC1 (stereo not shown) [Example 489]
[1]
  B1R Ant. r [10 μM] % Inhibition: 22%
[2]
  B1R Ant. h [10 μM] % Inhibition: 34%

## COc1cc(C)c(S(=O)(=O)N2CCCC(OCC(=O)NCCC3CCC(C(c4ccc(F)cc4)N(C)C)CC3)C2)c(C)c1C (stereo not shown) [Example 468]
[1]
  B1R Ant. r [10 μM] % Inhibition: 33%
[2]
  B1R Ant. h [10 μM] % Inhibition: 50%

## COc1cc(C)c(S(=O)(=O)N(C)CCOCC(=O)NCC2CCC(C(CCc3ccccc3)N(C)C)CC2)c(C)c1 (stereo not shown) [Example 525]
[1]
  B1R Ant. r [10 μM] % Inhibition: 93%
[2]
  B1R Ant. h [10 μM] % Inhibition: 99%

## COc1cc(C)c(S(=O)(=O)N2CCC(OCC(=O)NCC3CCC(C(CCc4ccccc4)N(C)C)CC3)C2)c(C)c1C (stereo not shown) [Example 503]
[1]
  B1R Ant. r [10 μM] % Inhibition: 37%
[2]
  B1R Ant. h [10 μM] % Inhibition: 105%

## Cc1cc(C)c(S(=O)(=O)N2CCC(OCC(=O)NCCC3CCC(C(c4ccc(F)cc4)N(C)C)CC3)C2)c(C)c1 (stereo not shown) [Example 501]
[1]
  B1R Ant. r [10 μM] % Inhibition: 38%
[2]
  B1R Ant. h [10 μM] % Inhibition: 77%

## COc1ccc(S(=O)(=O)N2CCCCC2CCOCC(=O)NCC2CCC(C(CCc3ccccc3)N(C)C)CC2)cc1 (stereo not shown) [Example 535]
[1]
  B1R Ant. r [10 μM] % Inhibition: 72%
[2]
  B1R Ant. h [10 μM] % Inhibition: 77%

## COc1cc(C)c(S(=O)(=O)N2CCC(OCC(=O)NCCC3CCC(C(c4ccc(F)cc4)N(C)C)CC3)CC2)c(C)c1C (stereo not shown) [Example 480]
[1]
  B1R Ant. r [10 μM] % Inhibition: 4%
[2]
  B1R Ant. h [10 μM] % Inhibition: 23%

## COc1cc(C)c(S(=O)(=O)N2CCC(OCC(=O)NC3CCC(C(c4ccc(F)cc4)N(C)C)CC3)CC2)c(C)c1C (stereo not shown) [Example 454]
[1]
  B1R Ant. r [10 μM] % Inhibition: 10%
[2]
  B1R Ant. h [10 μM] % Inhibition: 45%

## COc1ccc(S(=O)(=O)N2CCCCC2COCC(=O)NC2CCC(C(c3ccc(F)cc3)N(C)C)CC2)cc1 (stereo not shown) [Example 450]
[1]
  B1R Ant. r [10 μM] % Inhibition: 52%
[2]
  B1R Ant. h [10 μM] % Inhibition: 40%

## CN(C)C(c1ccc(F)cc1)C1CCC(CCNC(=O)COC2CCN(S(=O)(=O)c3ccccc3)C2)CC1 (stereo not shown) [Example 530]
[1]
  B1R Ant. r [10 μM] % Inhibition: 27%
[2]
  B1R Ant. h [10 μM] % Inhibition: −18%

## COc1cc(C)c(S(=O)(=O)N2CCC(CCOCC(=O)NCCC3CCC(C(c4ccc(F)cc4)N(C)C)CC3)CC2)c(C)c1C (stereo not shown) [Example 510]
[1]
  B1R Ant. r [10 μM] % Inhibition: 27%
[2]
  B1R Ant. h [10 μM] % Inhibition: 15%

## COc1ccc(S(=O)(=O)N2CCCC2COCC(=O)NCC2CCC(C(c3ccc(F)cc3)N(C)C)CC2)cc1 (stereo not shown) [Example 511]
[1]
  B1R Ant. r [10 μM] % Inhibition: 17%
[2]
  B1R Ant. h [10 μM] % Inhibition: 38%

## COc1ccc(S(=O)(=O)N2CCCCC2COCC(=O)NCC2CCC(C(CCc3ccccc3)N(C)C)CC2)cc1 (stereo not shown) [Example 469]
[1]
  B1R Ant. r [10 μM] % Inhibition: 87%
[2]
  B1R Ant. h [10 μM] % Inhibition: 91%

## CN(C)C(CCc1ccccc1)C1CCC(CNC(=O)COCCN(C)S(=O)(=O)c2ccc(Cl)cc2Cl)CC1 (stereo not shown) [Example 513]
[1]
  B1R Ant. r [10 μM] % Inhibition: 40%
[2]
  B1R Ant. h [10 μM] % Inhibition: 100%

## COc1cc(C)c(S(=O)(=O)N2CCC(CCOCC(=O)NCC3CCC(C(c4ccc(Cl)cc4)N(C)C)CC3)CC2)c(C)c1C (stereo not shown) [Example 499]
[1]
  B1R Ant. r [10 μM] % Inhibition: −10%
[2]
  B1R Ant. h [10 μM] % Inhibition: 25%

## COc1ccc(S(=O)(=O)N(C)CCOCC(=O)NCC2CCC(C(c3ccc(F)cc3)N(C)C)CC2)cc1OC (stereo not shown) [Example 514]
[1]
  B1R Ant. r [10 μM] % Inhibition: 22%
[2]
  B1R Ant. h [10 μM] % Inhibition: −6%

## COc1ccc(S(=O)(=O)N(C)CCOCC(=O)NCCC2CCC(C(c3ccc(F)cc3)N(C)C)CC2)cc1OC (stereo not shown) [Example 484]
[1]
  B1R Ant. r [10 μM] % Inhibition: 19%
[2]
  B1R Ant. h [10 μM] % Inhibition: −21%

## COc1ccc(S(=O)(=O)N2CCCCC2COCC(=O)NC2CCC(C(c3ccc(F)cc3)N(C)C)CC2)c(OC)c1 (stereo not shown) [Example 524]
[1]
  B1R Ant. r [10 μM] % Inhibition: 26%
[2]
  B1R Ant. h [10 μM] % Inhibition: −11%

## COc1cc(C)c(S(=O)(=O)N2CCCC(OCC(=O)NCCC3CCC(C(c4ccc(Cl)cc4)N(C)C)CC3)C2)c(C)c1C (stereo not shown) [Example 485]
[1]
  B1R Ant. r [10 μM] % Inhibition: 6%
[2]
  B1R Ant. h [10 μM] % Inhibition: 5%

## CN(C)C(c1ccc(F)cc1)C1CCC(NC(=O)COCCN2CCN(S(=O)(=O)c3ccccc3)CC2)CC1 (stereo not shown) [Example 502]
[1]
  B1R Ant. r [10 μM] % Inhibition: 21%
[2]
  B1R Ant. h [10 μM] % Inhibition: −3%

## CN(C)C(c1cccc(F)c1)C1CCC(CNC(=O)COC2CCN(S(=O)(=O)c3ccccc3)CC2)CC1 (stereo not shown) [Example 477]
[1]
  B1R Ant. r [10 μM] % Inhibition: 17%
[2]
  B1R Ant. h [10 μM] % Inhibition: −16%

## CN(C)C(c1ccc(F)cc1)C1CCC(CNC(=O)COC2CCN(S(=O)(=O)c3ccc(F)cc3)C2)CC1 (stereo not shown) [Example 522]
[1]
  B1R Ant. r [10 μM] % Inhibition: 12%
[2]
  B1R Ant. h [10 μM] % Inhibition: 1%

## Cc1ccc(S(=O)(=O)N(C)CCOCC(=O)NCC2CCC(C(CCc3ccccc3)N(C)C)CC2)cc1 (stereo not shown) [Example 452]
[1]
  B1R Ant. r [10 μM] % Inhibition: 18%
[2]
  B1R Ant. h [10 μM] % Inhibition: 37%

## COc1cc(C)c(S(=O)(=O)N(CCOCC(=O)NCC2CCC(C(c3ccc(Cl)cc3)N(C)C)CC2)Cc2ccccc2)c(C)c1 (stereo not shown) [Example 473]
[1]
  B1R Ant. r [10 μM] % Inhibition: −3%
[2]
  B1R Ant. h [10 μM] % Inhibition: 52%

## COc1ccc(S(=O)(=O)N2CCC(OCC(=O)NC3CCC(C(c4ccc(F)cc4)N(C)C)CC3)C2)cc1OC (stereo not shown) [Example 512]
[1]
  B1R Ant. r [10 μM] % Inhibition: 38%
[2]
  B1R Ant. h [10 μM] % Inhibition: −4%

## COc1cc(C)c(S(=O)(=O)N2CCC(OCC(=O)NCC3CCC(C(c4ccc(F)cc4)N(C)C)CC3)CC2)c(C)c1C (stereo not shown) [Example 527]
[1]
  B1R Ant. r [10 μM] % Inhibition: 68%
[2]
  B1R Ant. h [10 μM] % Inhibition: 57%

## CN(C)C(c1ccc(F)cc1)C1CCC(CCNC(=O)COCCC2CCN(S(=O)(=O)c3ccccc3)CC2)CC1 (stereo not shown) [Example 470]
[1]
  B1R Ant. r [10 μM] % Inhibition: 23%
[2]
  B1R Ant. h [10 μM] % Inhibition: 4%

## Cc1cc(C)c(S(=O)(=O)N2CCC(OCC(=O)NCC3CCC(C(CCc4ccccc4)N(C)C)CC3)C2)c(C)c1 (stereo not shown) [Example 475]
[1]
  B1R Ant. r [10 μM] % Inhibition: 40%
[2]
  B1R Ant. h [10 μM] % Inhibition: 103%

## CN(C)C(CCc1ccccc1)C1CCC(CNC(=O)COCCN2CCN(S(=O)(=O)c3ccccc3)CC2)CC1 (stereo not shown) [Example 526]
[1]
  B1R Ant. r [10 μM] % Inhibition: −30%
[2]
  B1R Ant. h [10 μM] % Inhibition: 10%

## CN(C)C(c1ccccc1)C1CCC(CNC(=O)COCCC2CCN(S(=O)(=O)c3ccccc3)CC2)CC1 (stereo not shown) [Example 507]
[1]
  B1R Ant. r [10 μM] % Inhibition: 3%
[2]
  B1R Ant. h [10 μM] % Inhibition: −19%

## CN(C)C(c1ccc(Cl)cc1)C1CCC(CNC(=O)COC2CCN(S(=O)(=O)c3ccccc3)CC2)CC1 (stereo not shown) [Example 471]
[1]
  B1R Ant. r [10 μM] % Inhibition: 15%
[2]
  B1R Ant. h [10 μM] % Inhibition: 7%

## CN(C)C(CCc1ccccc1)C1CCC(CNC(=O)COCCN(Cc2ccccc2)S(=O)(=O)c2ccccc2)CC1 (stereo not shown) [Example 533]
[1]
  B1R Ant. r [10 μM] % Inhibition: 12%
[2]
  B1R Ant. h [10 μM] % Inhibition: 35%

## CN(C)C(c1ccc(F)cc1)C1CCC(NC(=O)COCC2CCCN(S(=O)(=O)c3ccccc3)C2)CC1 (stereo not shown) [Example 478]
[1]
  B1R Ant. r [10 μM] % Inhibition: 23%
[2]
  B1R Ant. h [10 μM] % Inhibition: −3%

## COc1ccc(S(=O)(=O)N(C)CCOCC(=O)NCCC2CCC(C(c3ccc(F)cc3)N(C)C)CC2)cc1 (stereo not shown) [Example 519]
[1]
  B1R Ant. r [10 μM] % Inhibition: 44%
[2]
  B1R Ant. h [10 μM] % Inhibition: 38%

## CN(C)C(c1ccc(F)cc1)C1CCC(CCNC(=O)COCC2CCCN(S(=O)(=O)c3ccccc3)C2)CC1 (stereo not shown) [Example 479]
[1]
  B1R Ant. r [10 μM] % Inhibition: 22%
[2]
  B1R Ant. h [10 μM] % Inhibition: 18%

## Cc1ccc(S(=O)(=O)N2CCC(OCC(=O)NCCC3CCC(C(c4ccc(F)cc4)N(C)C)CC3)C2)cc1 (stereo not shown) [Example 491]
[1]
  B1R Ant. r [10 μM] % Inhibition: 16%
[2]
  B1R Ant. h [10 μM] % Inhibition: 5%

## COc1cc(C)c(S(=O)(=O)N2CCN(CCOCC(=O)NCC3CCC(C(CCc4ccccc4)N(C)C)CC3)CC2)c(C)c1C (stereo not shown) [Example 528]
[1]
  B1R Ant. r [10 μM] % Inhibition: 14%
[2]
  B1R Ant. h [10 μM] % Inhibition: 98%

## CN(C)C(c1ccc(F)cc1)C1CCC(CNC(=O)COC2CCCN(S(=O)(=O)c3ccccc3)C2)CC1 (stereo not shown) [Example 488]
[1]
  B1R Ant. r [10 μM] % Inhibition: −6%
[2]
  B1R Ant. h [10 μM] % Inhibition: 4%
